According to patent US8796259B2, “N3-heteroaryl substituted triazoles and N5-heteroaryl substituted triazoles useful as axl inhibitors” (Rigel Pharmaceuticals, Inc., priority 2006, dated 2014):

target: T1, Axl (Homo sapiens, UniProt P30530); assay: Phospho-Akt in-cell Western assay (inhibition of Axl activity, Axl-antibody cross-linking stimulation); assay type: cell-based; conditions: Hela cells, phospho-Akt readout; compounds of formula (Ia), Table 1
T1 construct: endogenous in cells; host or cells: HeLa cells
T1 sequence (P30530 26-894): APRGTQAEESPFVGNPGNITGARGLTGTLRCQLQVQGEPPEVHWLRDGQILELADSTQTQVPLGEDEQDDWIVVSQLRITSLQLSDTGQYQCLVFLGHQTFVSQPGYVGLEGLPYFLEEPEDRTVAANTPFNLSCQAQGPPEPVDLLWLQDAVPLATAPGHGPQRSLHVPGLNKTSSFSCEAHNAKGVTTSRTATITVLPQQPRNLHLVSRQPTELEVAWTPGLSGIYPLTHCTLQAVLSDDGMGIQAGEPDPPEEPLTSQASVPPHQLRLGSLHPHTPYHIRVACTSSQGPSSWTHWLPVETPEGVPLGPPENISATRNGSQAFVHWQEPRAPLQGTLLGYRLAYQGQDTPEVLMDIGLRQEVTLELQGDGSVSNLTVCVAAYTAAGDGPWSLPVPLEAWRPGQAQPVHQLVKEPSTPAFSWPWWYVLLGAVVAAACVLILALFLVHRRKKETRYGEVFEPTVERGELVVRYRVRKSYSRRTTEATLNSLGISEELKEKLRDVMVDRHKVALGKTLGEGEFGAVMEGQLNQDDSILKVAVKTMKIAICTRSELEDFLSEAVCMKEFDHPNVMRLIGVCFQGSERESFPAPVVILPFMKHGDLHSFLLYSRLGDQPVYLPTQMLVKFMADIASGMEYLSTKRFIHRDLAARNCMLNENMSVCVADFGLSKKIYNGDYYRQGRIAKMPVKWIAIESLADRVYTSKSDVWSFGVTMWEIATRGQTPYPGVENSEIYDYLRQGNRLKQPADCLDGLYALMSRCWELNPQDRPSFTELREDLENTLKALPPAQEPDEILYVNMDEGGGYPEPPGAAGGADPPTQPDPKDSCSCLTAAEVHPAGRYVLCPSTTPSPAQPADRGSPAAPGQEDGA
How it was run: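 HeLa cells on poly-L-lysine were starved 24 h in 0.5% FCS/DMEM with 500 ng/mL Axl/Fc, pre-treated with compound 1 h at 37 °C, then stimulated 5 min by cross-linked mouse anti-Axl/biotin anti-mouse antibody clusters. After formaldehyde fixation, phospho-Akt was detected by rabbit anti-phospho-Akt and HRP secondary with chemiluminescence read-out.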

SMILES | IC50
Cc1csc2c(-n3nc(Nc4ccc(C=CCN5CCC(N6CCN(C)CC6)CC5)nc4)nc3N)ncnc12 [compound 128, 1-(7-methylthieno [3,2-d]pyrimidin-4-yl)-N^3-(2-(3-(4-(4-methyl-piperazin-1-yl)piperidin-1-yl)propen-1-yl)pyridin-5-yl)-1H-1,2,4-triazole-3,5-diamine] | < 1000 nM
Cc1csc2c(-n3nc(Nc4ccc(C=CCN5CCC(N6CCCCC6)CC5)nc4)nc3N)ncnc12 [compound 129, 1-(7-methylthieno [3,2-d]pyrimidin-4-yl)-N^3-(2-(3-(4-piperidin-1-ylpiperidin-1-yl)propen-1-yl)pyridin-5-yl)-1H-1,2,4-triazole-3,5-diamine] | < 1000 nM
Cc1cc(Nc2nc(N)n(-c3cc(-c4ccccc4)ncn3)n2)cnc1N1CCC(N2CCCC2)CC1 [compound 130, 1-(6-phenyl-pyrimidine-4-yl)-N^3-(3-methyl-2-(4-pyrrolidin-1-ylpiperidin-1-yl)pyridin-5-yl)-1H-1,2,4-triazole-3,5-diamine] | < 1000 nM
Cc1csc2c(-n3nc(Nc4cnc(N5CCC(CN6CCCCC6)CC5)nc4)nc3N)nc(Cl)nc12 [compound 131, 1-(2-chloro-7-methylthieno [3,2-d]pyrimidin-4-yl)-N^3-(2-(4-(piperidin-1-ylmethyl)piperidin-1-yl)pyrimidin-5-yl)-1H-1,2,4-triazole-3,5-diamine] | < 1000 nM

same assay, conditions: Hela cells, phospho-Akt readout; compounds of formula (Ib), Table 2

SMILES | IC50
Cc1cc(Nc2nc(N)nn2-c2nnc(C)c3ccsc23)cnc1N1CCN([C@H]2C[C@@H]3CC[C@H]2C3)CC1 [compound 132, 1-(4-methylthieno[2,3-d]pyridazin-7-yl)-N^5-(2-(4-(1S,2S,4R)-bicyclo[2.2.1]heptan-2-ylpiperazin-1-yl)-3-methylpyridin-5-yl)-1H-1,2,4-triazole-3,5-diamine] | > 20000 nM
Cc1csc2c(-n3nc(N)nc3Nc3ccc(C=CCN4CCC(N5CCN(C)CC5)CC4)nc3)ncnc12 [compound 133, 1-(7-methylthieno[3,2-d]pyrimidin-4-yl)-N^5-(2-(3-(4-(4-methylpiperazin-1-yl)piperidin-1-yl)propen-1-yl)pyridin-5-yl)-1H-1,2,4-triazole-3,5-diamine] | < 1000 nM
